Source: the kinase profiling compilation of Christmann-Franck et al. (2016)

Experiments:
Assay in all cases: radiometric filter-binding kinase assay, Kinase HotSpot
CAMK2G (human) = CAMK2G (human) (UniProt Q13555); details: compound 0.5 µM; ATP 10 µM
MAPK12 (human) = MAPK12 (human) (UniProt P53778); details: compound 0.5 µM; ATP 10 µM
GSK3A (human) = GSK3A (human) (UniProt P49840); details: compound 0.5 µM; ATP 10 µM
OXSR1 (human) = OXSR1 (human) (UniProt O95747); details: compound 0.5 µM; ATP 10 µM
DMPK (human) = DMPK (human) (UniProt Q09013); details: compound 0.5 µM; ATP 10 µM
AKT1 (human) = AKT1 (human) (UniProt P31749); details: compound 0.5 µM; ATP 10 µM
CDC42BPB (human) = CDC42BPB (human) (UniProt Q9Y5S2); details: compound 0.5 µM; ATP 10 µM
PIM3 (human) = PIM3 (human) (UniProt Q86V86); details: compound 0.5 µM; ATP 10 µM
SRPK3 (human) = SRPK3 (human) (UniProt Q9UPE1); details: compound 0.5 µM; ATP 10 µM
PBK (human) = PBK (human) (UniProt Q96KB5); details: compound 0.5 µM; ATP 10 µM
JAK2 JH1 JH2 (human) = JAK2 JH1 JH2 (human) (UniProt O60674); details: compound 0.5 µM; ATP 10 µM
PKN2 (human) = PKN2 (human) (UniProt Q16513); details: compound 0.5 µM; ATP 10 µM
MAPKAPK3 (human) = MAPKAPK3 (human) (UniProt Q16644); details: compound 0.5 µM; ATP 10 µM
MAPKAPK3 (human), sequence (Q16644 whole entry, looked up): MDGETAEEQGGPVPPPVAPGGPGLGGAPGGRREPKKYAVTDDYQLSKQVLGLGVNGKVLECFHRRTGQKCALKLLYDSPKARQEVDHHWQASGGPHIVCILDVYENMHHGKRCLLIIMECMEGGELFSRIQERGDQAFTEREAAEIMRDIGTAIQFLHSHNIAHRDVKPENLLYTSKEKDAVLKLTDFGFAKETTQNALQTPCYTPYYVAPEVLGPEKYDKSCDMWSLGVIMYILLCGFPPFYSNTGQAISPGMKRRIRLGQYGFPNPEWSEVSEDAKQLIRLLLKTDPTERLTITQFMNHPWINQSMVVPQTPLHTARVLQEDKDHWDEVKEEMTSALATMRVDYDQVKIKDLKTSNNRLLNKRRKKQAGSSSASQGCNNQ

HIPK3 (human) = HIPK3 (human) (UniProt Q9H422); details: compound 0.5 µM; ATP 10 µM
PLK2 (human) = PLK2 (human) (UniProt Q9NYY3); details: compound 0.5 µM; ATP 10 µM
PLK2 (human), sequence (Q9NYY3 whole entry, looked up): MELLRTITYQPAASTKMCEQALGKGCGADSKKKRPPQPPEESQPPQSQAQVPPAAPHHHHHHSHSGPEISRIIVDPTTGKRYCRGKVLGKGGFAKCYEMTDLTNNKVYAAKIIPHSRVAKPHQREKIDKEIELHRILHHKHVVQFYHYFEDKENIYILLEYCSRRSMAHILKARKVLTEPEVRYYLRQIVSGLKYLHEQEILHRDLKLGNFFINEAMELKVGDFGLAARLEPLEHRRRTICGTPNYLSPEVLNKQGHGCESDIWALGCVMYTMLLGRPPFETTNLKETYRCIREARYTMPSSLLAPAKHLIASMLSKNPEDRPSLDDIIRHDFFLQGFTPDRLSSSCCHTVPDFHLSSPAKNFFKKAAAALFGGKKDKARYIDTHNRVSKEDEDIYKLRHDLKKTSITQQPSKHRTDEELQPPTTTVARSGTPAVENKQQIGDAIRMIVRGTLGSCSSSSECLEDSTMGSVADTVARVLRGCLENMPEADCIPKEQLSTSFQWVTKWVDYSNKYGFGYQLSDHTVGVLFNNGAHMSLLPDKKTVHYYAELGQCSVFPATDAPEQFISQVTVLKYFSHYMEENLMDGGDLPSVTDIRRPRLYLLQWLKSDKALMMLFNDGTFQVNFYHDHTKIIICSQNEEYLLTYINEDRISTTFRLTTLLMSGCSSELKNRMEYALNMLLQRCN

CDK3 CCNE1 (human) = CDK3 CCNE1 (human) (UniProt Q00526+P24864); details: compound 0.5 µM
WNK2 (human) = WNK2 (human) (UniProt Q9Y3S1); details: compound 0.5 µM; ATP 10 µM
MARK4 (human) = MARK4 (human) (UniProt Q96L34); details: compound 0.5 µM; ATP 10 µM
LTK (human) = LTK (human) (UniProt P29376); details: compound 0.5 µM; ATP 10 µM
LTK (human), sequence (P29376 whole entry, looked up): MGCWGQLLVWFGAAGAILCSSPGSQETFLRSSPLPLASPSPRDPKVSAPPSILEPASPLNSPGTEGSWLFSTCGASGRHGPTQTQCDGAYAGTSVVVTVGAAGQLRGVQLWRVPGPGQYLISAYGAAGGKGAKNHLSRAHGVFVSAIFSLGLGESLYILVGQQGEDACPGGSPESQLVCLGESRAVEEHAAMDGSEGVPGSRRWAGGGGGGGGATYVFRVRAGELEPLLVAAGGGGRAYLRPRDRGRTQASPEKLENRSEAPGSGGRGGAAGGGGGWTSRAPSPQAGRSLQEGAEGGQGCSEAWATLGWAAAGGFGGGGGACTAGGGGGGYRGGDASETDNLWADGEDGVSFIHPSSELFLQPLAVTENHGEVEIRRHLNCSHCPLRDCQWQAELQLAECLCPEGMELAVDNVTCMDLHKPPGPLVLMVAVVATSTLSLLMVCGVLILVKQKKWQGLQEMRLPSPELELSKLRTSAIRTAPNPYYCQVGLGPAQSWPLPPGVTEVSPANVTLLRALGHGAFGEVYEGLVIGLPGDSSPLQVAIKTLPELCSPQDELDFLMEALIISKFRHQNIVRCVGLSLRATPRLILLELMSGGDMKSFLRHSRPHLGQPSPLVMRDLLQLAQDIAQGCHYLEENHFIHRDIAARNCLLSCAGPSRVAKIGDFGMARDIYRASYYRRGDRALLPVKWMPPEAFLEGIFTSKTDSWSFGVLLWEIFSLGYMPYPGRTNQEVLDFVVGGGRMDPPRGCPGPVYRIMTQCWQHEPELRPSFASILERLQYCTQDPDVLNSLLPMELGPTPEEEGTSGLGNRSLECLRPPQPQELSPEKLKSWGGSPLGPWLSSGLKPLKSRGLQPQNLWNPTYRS

CSNK1G2 (human) = CSNK1G2 (human) (UniProt P78368); details: compound 0.5 µM; ATP 10 µM
FES (human) = FES (human) (UniProt P07332); details: compound 0.5 µM; ATP 10 µM
RIPK2 (human) = RIPK2 (human) (UniProt O43353); details: compound 0.5 µM; ATP 10 µM
BLK (human) = BLK (human) (UniProt P51451); details: compound 0.5 µM; ATP 10 µM
DCLK2 (human) = DCLK2 (human) (UniProt Q8N568); details: compound 0.5 µM; ATP 10 µM
PNCK (human) = PNCK (human) (UniProt Q6P2M8); details: compound 0.5 µM; ATP 10 µM
[1] = system: SGK1 (human), O00141 [S422D]; details: compound 0.5 µM; ATP 10 µM
WEE1 (human) = WEE1 (human) (UniProt P30291); details: compound 0.5 µM; ATP 10 µM
KDR (human) = KDR (human) (UniProt P35968); details: compound 0.5 µM; ATP 10 µM
DAPK1 (human) = DAPK1 (human) (UniProt P53355); details: compound 0.5 µM; ATP 10 µM
[2] = target: TYK2 JH1 catalytic (human) (UniProt P29597); details: compound 0.5 µM; ATP 10 µM
PRKCG (human) = PRKCG (human) (UniProt P05129); details: compound 0.5 µM; ATP 10 µM
MARK2 (human) = MARK2 (human) (UniProt Q7KZI7); details: compound 0.5 µM; ATP 10 µM
MARK2 (human), sequence (Q7KZI7 whole entry, looked up): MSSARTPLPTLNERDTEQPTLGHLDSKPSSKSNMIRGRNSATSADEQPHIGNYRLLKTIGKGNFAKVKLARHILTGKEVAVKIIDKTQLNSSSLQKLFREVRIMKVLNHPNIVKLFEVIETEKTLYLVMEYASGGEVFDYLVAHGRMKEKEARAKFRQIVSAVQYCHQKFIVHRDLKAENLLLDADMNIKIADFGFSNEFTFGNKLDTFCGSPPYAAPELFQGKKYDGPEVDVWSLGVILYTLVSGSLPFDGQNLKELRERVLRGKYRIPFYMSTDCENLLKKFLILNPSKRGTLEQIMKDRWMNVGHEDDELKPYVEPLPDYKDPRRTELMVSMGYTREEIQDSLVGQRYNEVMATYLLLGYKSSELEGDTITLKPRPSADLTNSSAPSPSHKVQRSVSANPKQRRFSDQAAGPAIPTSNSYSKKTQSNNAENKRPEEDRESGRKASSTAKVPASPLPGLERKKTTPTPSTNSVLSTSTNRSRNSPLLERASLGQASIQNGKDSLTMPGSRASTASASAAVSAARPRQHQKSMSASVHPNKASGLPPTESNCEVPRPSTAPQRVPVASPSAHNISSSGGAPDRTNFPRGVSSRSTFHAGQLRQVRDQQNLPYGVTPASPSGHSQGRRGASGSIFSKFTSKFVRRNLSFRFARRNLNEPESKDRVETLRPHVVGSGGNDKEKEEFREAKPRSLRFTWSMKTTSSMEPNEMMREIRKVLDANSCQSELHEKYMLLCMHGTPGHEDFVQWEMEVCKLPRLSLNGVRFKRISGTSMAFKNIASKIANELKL

SGK2 (human) = SGK2 (human) (UniProt Q9HBY8); details: compound 0.5 µM; ATP 10 µM
SGK2 (human), sequence (Q9HBY8 whole entry, looked up): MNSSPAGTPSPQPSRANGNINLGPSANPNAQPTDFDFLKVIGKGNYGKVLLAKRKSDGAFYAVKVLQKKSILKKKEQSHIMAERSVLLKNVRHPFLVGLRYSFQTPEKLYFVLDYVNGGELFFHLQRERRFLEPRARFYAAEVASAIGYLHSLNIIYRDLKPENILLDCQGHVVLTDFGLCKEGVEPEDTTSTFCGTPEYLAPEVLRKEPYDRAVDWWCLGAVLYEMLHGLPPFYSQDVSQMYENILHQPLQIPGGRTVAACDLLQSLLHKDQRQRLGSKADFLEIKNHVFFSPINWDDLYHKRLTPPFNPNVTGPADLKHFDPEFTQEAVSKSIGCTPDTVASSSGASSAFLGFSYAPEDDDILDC

KIT (human) = KIT (human) (UniProt P10721); details: compound 0.5 µM; ATP 10 µM
MAP3K10 (human) = MAP3K10 (human) (UniProt Q02779); details: compound 0.5 µM; ATP 10 µM
PIM2 (human) = PIM2 (human) (UniProt Q9P1W9); details: compound 0.5 µM; ATP 10 µM
PIM2 (human), sequence (Q9P1W9 whole entry, looked up): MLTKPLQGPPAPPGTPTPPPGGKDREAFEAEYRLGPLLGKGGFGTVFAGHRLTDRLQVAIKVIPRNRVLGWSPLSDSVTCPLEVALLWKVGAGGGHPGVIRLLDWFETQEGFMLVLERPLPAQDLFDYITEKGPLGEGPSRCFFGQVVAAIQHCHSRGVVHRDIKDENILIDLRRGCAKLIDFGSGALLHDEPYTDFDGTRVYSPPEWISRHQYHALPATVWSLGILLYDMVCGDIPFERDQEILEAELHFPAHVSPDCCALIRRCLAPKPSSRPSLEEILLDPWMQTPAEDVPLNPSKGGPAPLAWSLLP

CAMK2A (human) = CAMK2A (human) (UniProt Q9UQM7); details: compound 0.5 µM; ATP 10 µM
PTK2 (human) = PTK2 (human) (UniProt Q05397); details: compound 0.5 µM; ATP 10 µM
FLT3 (human) = FLT3 (human) (UniProt P36888); details: compound 0.5 µM; ATP 10 µM
PIM1 (human) = PIM1 (human) (UniProt P11309); details: compound 0.5 µM; ATP 10 µM
STK3 (human) = STK3 (human) (UniProt Q13188); details: compound 0.5 µM; ATP 10 µM
PDGFRA (human) = PDGFRA (human) (UniProt P16234); details: compound 0.5 µM; ATP 10 µM

CAMK2G (human), sequence (Q13555 whole entry, looked up): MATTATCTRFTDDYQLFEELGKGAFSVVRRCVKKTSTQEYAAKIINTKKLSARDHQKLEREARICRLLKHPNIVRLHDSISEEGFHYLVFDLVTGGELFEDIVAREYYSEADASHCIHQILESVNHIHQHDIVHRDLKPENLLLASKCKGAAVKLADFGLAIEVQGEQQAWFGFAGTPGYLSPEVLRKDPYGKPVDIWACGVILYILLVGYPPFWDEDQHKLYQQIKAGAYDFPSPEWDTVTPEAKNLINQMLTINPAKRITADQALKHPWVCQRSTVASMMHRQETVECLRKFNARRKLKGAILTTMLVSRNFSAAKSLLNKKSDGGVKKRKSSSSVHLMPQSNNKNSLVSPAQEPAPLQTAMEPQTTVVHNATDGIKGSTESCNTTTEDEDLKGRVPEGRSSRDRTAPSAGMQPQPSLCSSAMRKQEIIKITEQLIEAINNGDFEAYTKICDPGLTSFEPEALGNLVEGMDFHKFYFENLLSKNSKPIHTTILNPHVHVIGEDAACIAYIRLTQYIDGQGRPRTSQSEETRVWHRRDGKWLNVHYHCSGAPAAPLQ
MAPK12 (human), sequence (P53778 whole entry, looked up): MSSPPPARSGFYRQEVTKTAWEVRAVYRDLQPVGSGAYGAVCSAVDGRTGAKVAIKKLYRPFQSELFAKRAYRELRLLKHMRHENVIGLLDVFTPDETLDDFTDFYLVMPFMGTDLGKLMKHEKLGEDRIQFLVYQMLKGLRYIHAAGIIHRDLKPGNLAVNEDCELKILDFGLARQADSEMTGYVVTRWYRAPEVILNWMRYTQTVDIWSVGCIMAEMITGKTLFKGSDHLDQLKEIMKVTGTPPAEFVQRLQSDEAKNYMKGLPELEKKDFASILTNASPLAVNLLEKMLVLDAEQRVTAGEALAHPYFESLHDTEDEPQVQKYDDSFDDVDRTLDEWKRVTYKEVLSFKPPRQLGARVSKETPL

O=c1[nH]c2ccccc2n1C1CCN(Cc2ccc(-c3nc4cc5[nH]cnc5cc4nc3-c3ccccc3)cc2)CC1
residual activity (CAMK2G (human)): 105%
residual activity (MAPK12 (human)): 93.1%
residual activity (GSK3A (human)): 100%
residual activity (OXSR1 (human)): 102%
residual activity (DMPK (human)): 98%
residual activity (AKT1 (human)): 114%
residual activity (CDC42BPB (human)): 101%
residual activity (PIM3 (human)): 106%
residual activity (SRPK3 (human)): 107%
residual activity (PBK (human)): 103%
residual activity (JAK2 JH1 JH2 (human)): 104%
residual activity (PKN2 (human)): 73.2%
residual activity (MAPKAPK3 (human)): 104%
residual activity (HIPK3 (human)): 102%
residual activity (PLK2 (human)): 95.5%
residual activity (CDK3 CCNE1 (human)): 97.5%
residual activity (WNK2 (human)): 115%
residual activity (MARK4 (human)): 102%
residual activity (LTK (human)): 95.6%
residual activity (CSNK1G2 (human)): 101%
residual activity (FES (human)): 101%
residual activity (RIPK2 (human)): 89.2%
residual activity (BLK (human)): 106%
residual activity (DCLK2 (human)): 107%
residual activity (PNCK (human)): 95.5%
residual activity [1]: 102%
residual activity (WEE1 (human)): 93.9%
residual activity (KDR (human)): 90.9%
residual activity (DAPK1 (human)): 82.9%
residual activity [2]: 101%
residual activity (PRKCG (human)): 92.2%
residual activity (MARK2 (human)): 92.2%
residual activity (SGK2 (human)): 112%
residual activity (KIT (human)): 91.7%
residual activity (MAP3K10 (human)): 102%
residual activity (PIM2 (human)): 111%
residual activity (CAMK2A (human)): 109%
residual activity (PTK2 (human)): 108%
residual activity (FLT3 (human)): 94.6%
residual activity (PIM1 (human)): 106%
residual activity (STK3 (human)): 103%
residual activity (PDGFRA (human)): 98.2%

O=c1c(-c2ccc(F)cc2)c(-c2ccncc2)[nH]n1-c1ccc(Cl)cc1
residual activity (CAMK2G (human)): 109%
residual activity (MAPK12 (human)): 85.2%
residual activity (GSK3A (human)): 93.3%
residual activity (OXSR1 (human)): 83.3%
residual activity (DMPK (human)): 87.6%
residual activity (AKT1 (human)): 96.4%
residual activity (CDC42BPB (human)): 103%
residual activity (PIM3 (human)): 89.9%
residual activity (SRPK3 (human)): 92.2%
residual activity (PBK (human)): 87.7%
residual activity (JAK2 JH1 JH2 (human)): 95.1%
residual activity (PKN2 (human)): 96.4%
residual activity (MAPKAPK3 (human)): 101%
residual activity (HIPK3 (human)): 101%
residual activity (PLK2 (human)): 92.5%
residual activity (CDK3 CCNE1 (human); ATP 10 µM): 86.9%
residual activity (WNK2 (human)): 112%
residual activity (MARK4 (human)): 80%
residual activity (LTK (human)): 75.5%
residual activity (CSNK1G2 (human)): 93.8%
residual activity (FES (human)): 92.3%
residual activity (RIPK2 (human)): 50.2%
residual activity (BLK (human)): 91.6%
residual activity (DCLK2 (human)): 99.9%
residual activity (PNCK (human)): 92%
residual activity [1]: 97.3%
residual activity (WEE1 (human)): 81.6%
residual activity (KDR (human)): 90.6%
residual activity (DAPK1 (human)): 84.5%
residual activity [2]: 90.9%
residual activity (PRKCG (human)): 101%
residual activity (MARK2 (human)): 88.8%
residual activity (SGK2 (human)): 94.3%
residual activity (KIT (human)): 94.9%
residual activity (MAP3K10 (human)): 88.1%
residual activity (PIM2 (human)): 114%
residual activity (CAMK2A (human)): 86.9%
residual activity (PTK2 (human)): 95.1%
residual activity (FLT3 (human)): 92.8%
residual activity (PIM1 (human)): 101%
residual activity (STK3 (human)): 88.3%
residual activity (PDGFRA (human)): 103%
